Data published in EPA's ToxValDB 9.5.

What was measured:
Rattus norvegicus = settings: oral
[1] = subchronic, duration: 90 days, M, CD, Body Weight: 33% reduction in final mean body weight
[2] = reproduction developmental, oral, gavage, M, C57BL/6, generation: F1, F1: spleen: mean percent splenic CD4+CD25+Foxp3+ T cells
[3] = short-term, duration: 4 weeks, oral, gavage, M, TNF-alpha mRNA levels in liver (normalized to GAPDH)

In the case of `O=C([O-])C(F)(F)C(F)(F)C(F)(F)C(F)(F)C(F)(F)C(F)(F)C(F)(F)F.[NH4+]` [Ammonium perfluorooctanoate], the LOAEL (Rattus norvegicus; short-term, duration: 28 days, M, Sprague-Dawley, Hepatic: Increased liver weight (43% on day 29), decreased serum cholesterol (39% on day 29) and triglyceride (73% on day 29), …) is reported as 18 mg/kg-day, the LOAEL (Rattus norvegicus; short-term, duration: 28 days, M, albino, Death: 5/5 males and 5/5 females died) is reported as 1000 mg/kg-day and the NOAEL (Rattus norvegicus; subchronic, duration: 13 weeks, M, CD, Hepatic: Minimal to moderate hepatocellular hypertrophy at ?0.64 mg/kg/day + Neurological: No histological alterations + Reproductive: No …) is reported as 6.5 mg/kg-day. For the same compound, the NOAEL (Rattus norvegicus; subchronic, duration: 90 days, F, CD) was 100 mg/kg-day, the NOAEL (Rattus norvegicus; subchronic, duration: 90 days, F, CD, Neurological: No histological alterations) was 110 mg/kg-day and the LOAEL (Rattus norvegicus; [1]) was 100 mg/kg-day. It also gave an NOAEL (Rattus norvegicus; [1]) of 30 mg/kg-day, an NOAEL (Rattus norvegicus; subchronic, duration: 90 days, M, CD, Hepatic: Hepatocyte hypertrophy / 50% increase in absolute liver weight + Reproductive: No histological alterations) of 100 mg/kg-day and an LOEL (Mus musculus; acute, duration: 1 days, injection, intraperitoneal, serum histamine content) of 1 mg/kg-day. For the same compound, the NOEL (Mus musculus; developmental, duration: 9 days, oral, drinking water, F, C57BL/6, generation: F1, F1: IgM antibody titer (SRBC) + F1: spleen: spleen: relative weight + F1: thymus: thymus: relative weight) was 6.7 mg/L, the NOEL (Mus musculus; developmental, duration: 16 days, oral, gavage, F, CD1, generation: F1, F1: spleen: spleen: relative weight (ovx)) was 5 mg/kg-day and the NOEL (Mus musculus; reproduction developmental, oral, diet, M/F, BALB/c, generation: F1, F1: airway MCh sensitivity + F1: airway resistance (at 25 mg/mL methacholine) + F1: lung: BALF inflammatory cell counts: eosinophils + F1: …) was 4 ppm. The LOEL (Mus musculus; reproduction developmental, oral, diet, M/F, BALB/c, generation: F1, F1: airway MCh sensitivity + F1: airway resistance (at 25 mg/mL methacholine) + F1: lung: BALF inflammatory cell counts: macrophages + F1: …) was 4 ppm, the NOEL (Mus musculus; reproduction developmental, oral, gavage, F, C57BL/6, generation: F1, F1: mean serum anti-MBP) was 2 mg/kg-day and the NOEL (Mus musculus; reproduction developmental, oral, gavage, F, C57BL/6, generation: F1, F1: mean serum anti-dsDNA + F1: spleen: mean percent splenic CD4+CD25+Foxp3+ T cells) was 0.2 mg/kg-day. For the same compound, the LOEL (Mus musculus; reproduction developmental, oral, gavage, F, C57BL/6, generation: F1, F1: mean serum anti-ssDNA + F1: spleen (CD4+CD25+): IL-10 levels) was 0.02 mg/kg-day, the LOEL (Mus musculus; reproduction developmental, oral, gavage, F, C57BL/6, generation: F1, F1: spleen: mean percent splenic CD4+CD25+Foxp3+ T cells) was 2 mg/kg-day and the NOEL (Mus musculus; reproduction developmental, oral, gavage, M, C57BL/6, generation: F1, F1: mean serum anti-dsDNA + F1: mean serum anti-MBP + F1: mean serum anti-ssDNA) was 2 mg/kg-day. It also gave an LOEL (Mus musculus; reproduction developmental, oral, gavage, M, C57BL/6, generation: F1, F1: spleen (CD4+CD25+): IL-10 levels) of 0.02 mg/kg-day, an LOEL (Mus musculus; [2]) of 2 mg/kg-day and an NOEL (Mus musculus; [2]) of 0.2 mg/kg-day. The NOEL (Mus musculus; short-term, duration: 3 weeks, oral, diet, M, C57BL/6, fold changes of proinflammatory cytokine genes in liver: IL-1b gene (relative to control) + fold changes of proinflammatory cytokine genes …) was 5 mg/kg-day, the LOEL (Mus musculus; short-term, duration: 3 weeks, oral, diet, M, C57BL/6, fold changes of proinflammatory cytokine genes in liver: IP-10 gene (relative to control) + fold changes of proinflammatory cytokine genes …) was 5 mg/kg-day and the NOEL (Mus musculus; short-term, duration: 3 weeks, oral, gavage, F, BALB/c, IgM antibody level (TNP 1:50)) was 20 mg/kg-day. The NOEL (Mus musculus; short-term, duration: 4 weeks, oral, gavage, M, 129S4/SvlmJ, TNF-alpha mRNA levels in liver (normalized to GAPDH)) was 21.6 mg/kg-day, the LOEL (Mus musculus; [3]) was 10.8 mg/kg-day and the NOEL (Mus musculus; [3]) was 5.39 mg/kg-day. The NOEL (Mus musculus; short-term, duration: 2 days, oral, diet, M, C57BL/6, spleen: spleen: absolute weight + thymus: thymus: absolute weight + thymus: total thymic DNA content) was 0.02%, the LOEL (Mus musculus; short-term, duration: 2 days, oral, diet, M, C57BL/6, spleen: total splenic DNA content) was 0.02% and the NOEL (Mus musculus; short-term, duration: 4 days, dermal, F, BALB/c, OVA-specific IgE) was 1.5%. It also gave an LOEL (Mus musculus; short-term, duration: 4 days, dermal, F, BALB/c, PCA passive cutaneous anaphylaxis) of 10 mg/kg-day and an LOEL (Mus musculus; short-term, duration: 4 days, dermal, F, BALB/c, blood serum: OVA-specific IgE + blood serum: total serum IgE + OVA-specific airway hyperreactivity (AUC) + spleen: spleen B220+ cells + …) of 1%.
